Laboratory results: the NIST ThermoML archive (doi:10.1016/j.jct.2010.08.021)
Where “and” joins values, the source holds several entries; their conditions need not be identical. Equal entries are not always repeated.

Assay: mn = molality of the nth substance listed, in mol/kg
Conditions: 101 kPa, Liquid; for speed of sound: Sing-around technique in a fixed-path interferometer; for mass density: Vibrating tube method

N.N.O=C(O)CC(O)(CC(=O)O)C(=O)O [ammonium citrate, dibasic] + O
Conditions	mass density	speed of sound
288.15 K, m1 = 0.0059	999.706 kg/m3	1467.4 m/s
288.15 K, m1 = 0.0071	999.822 kg/m3	1467.6 m/s
288.15 K, m1 = 0.0087	999.992 kg/m3	1467.9 m/s
288.15 K, m1 = 0.0129	1000.42 kg/m3	1468.5 m/s
288.15 K, m1 = 0.0177	1000.9 kg/m3	1469.1 m/s
288.15 K, m1 = 0.0222	1001.37 kg/m3	1469.7 m/s
288.15 K, m1 = 0.0266	1001.8 kg/m3	1470.2 m/s
288.15 K, m1 = 0.0311	1002.26 kg/m3	1470.9 m/s
288.15 K, m1 = 0.0354	1002.69 kg/m3	1471.5 m/s
288.15 K, m1 = 0.0423	1003.38 kg/m3	1472.4 m/s
288.15 K, m1 = 0.0446	1003.62 kg/m3	1472.8 m/s
288.15 K, m1 = 0.0468	1003.84 kg/m3	1473.1 m/s
288.15 K, m1 = 0.0492	1004.09 kg/m3	1473.4 m/s
288.15 K, m1 = 0.0562	1004.75 kg/m3	1474.3 m/s
288.15 K, m1 = 0.0645	1005.59 kg/m3	1475.4 m/s
288.15 K, m1 = 0.0748	1006.57 kg/m3	1476.8 m/s
288.15 K, m1 = 0.0797	1007.07 kg/m3	1477.4 m/s
288.15 K, m1 = 0.09	1008.08 kg/m3	1478.8 m/s
288.15 K, m1 = 0.5	1044.77 kg/m3 and 1044.77 kg/m3 and 1044.73 kg/m3	1529.2 m/s and 1529 m/s and 1529 m/s
288.15 K, m1 = 0.988	1082.62 kg/m3	1585.1 m/s
288.15 K, m1 = 0.997	1082.58 kg/m3	1584.9 m/s
288.15 K, m1 = 0.998	1082.63 kg/m3	1585 m/s
293.15 K, m1 = 0.0059	998.799 kg/m3	1483.5 m/s
293.15 K, m1 = 0.0071	998.916 kg/m3	1483.7 m/s
293.15 K, m1 = 0.0087	999.084 kg/m3	1483.9 m/s
293.15 K, m1 = 0.0129	999.5 kg/m3	1484.5 m/s
293.15 K, m1 = 0.0177	999.976 kg/m3	1485.1 m/s
293.15 K, m1 = 0.0222	1000.44 kg/m3	1485.7 m/s
293.15 K, m1 = 0.0266	1000.87 kg/m3	1486.2 m/s
293.15 K, m1 = 0.0311	1001.32 kg/m3	1486.8 m/s
293.15 K, m1 = 0.0354	1001.75 kg/m3	1487.4 m/s
293.15 K, m1 = 0.0423	1002.43 kg/m3	1488.3 m/s
293.15 K, m1 = 0.0446	1002.67 kg/m3	1488.7 m/s
293.15 K, m1 = 0.0468	1002.88 kg/m3	1488.9 m/s
293.15 K, m1 = 0.0492	1003.13 kg/m3	1489.3 m/s
293.15 K, m1 = 0.0562	1003.78 kg/m3	1490.1 m/s
293.15 K, m1 = 0.0645	1004.61 kg/m3	1491.2 m/s
293.15 K, m1 = 0.0748	1005.58 kg/m3	1492.5 m/s
293.15 K, m1 = 0.0797	1006.07 kg/m3	1493.1 m/s
293.15 K, m1 = 0.09	1007.07 kg/m3	1494.4 m/s
293.15 K, m1 = 0.5	1043.38 kg/m3 and 1043.38 kg/m3 and 1043.34 kg/m3	1542.8 m/s and 1542.6 m/s and 1542.7 m/s
293.15 K, m1 = 0.988	1080.92 kg/m3	1596.5 m/s
293.15 K, m1 = 0.997	1080.88 kg/m3	1596.4 m/s
293.15 K, m1 = 0.998	1080.93 kg/m3	1596.5 m/s
298.15 K, m1 = 0.0059	997.633 kg/m3	1497.7 m/s
298.15 K, m1 = 0.0071	997.747 kg/m3	1497.9 m/s
298.15 K, m1 = 0.0087	997.913 kg/m3	1498.1 m/s
298.15 K, m1 = 0.0129	998.325 kg/m3	1498.7 m/s
298.15 K, m1 = 0.0177	998.796 kg/m3	1499.3 m/s
298.15 K, m1 = 0.0222	999.256 kg/m3	1499.9 m/s
298.15 K, m1 = 0.0266	999.681 kg/m3	1500.3 m/s
298.15 K, m1 = 0.0311	1000.12 kg/m3	1501 m/s
298.15 K, m1 = 0.0354	1000.55 kg/m3	1501.5 m/s
298.15 K, m1 = 0.0423	1001.23 kg/m3	1502.4 m/s
298.15 K, m1 = 0.0446	1001.46 kg/m3	1502.7 m/s
298.15 K, m1 = 0.0468	1001.67 kg/m3	1503 m/s
298.15 K, m1 = 0.0492	1001.92 kg/m3	1503.3 m/s
298.15 K, m1 = 0.0562	1002.56 kg/m3	1504.1 m/s
298.15 K, m1 = 0.0645	1003.38 kg/m3	1505.2 m/s
298.15 K, m1 = 0.0748	1004.34 kg/m3	1506.4 m/s
298.15 K, m1 = 0.0797	1004.83 kg/m3	1507 m/s
298.15 K, m1 = 0.09	1005.81 kg/m3	1508.2 m/s
298.15 K, m1 = 0.5	1041.8 kg/m3 and 1041.8 kg/m3 and 1041.76 kg/m3	1554.8 m/s and 1554.6 m/s and 1554.6 m/s
298.15 K, m1 = 0.988	1079.09 kg/m3	1606.5 m/s
298.15 K, m1 = 0.997	1079.04 kg/m3	1606.4 m/s
298.15 K, m1 = 0.998	1079.09 kg/m3	1606.5 m/s
303.15 K, m1 = 0.0059	996.228 kg/m3	1510.1 m/s
303.15 K, m1 = 0.0071	996.341 kg/m3	1510.3 m/s
303.15 K, m1 = 0.0087	996.506 kg/m3	1510.5 m/s
303.15 K, m1 = 0.0129	996.916 kg/m3	1511 m/s
303.15 K, m1 = 0.0177	997.381 kg/m3	1511.6 m/s
303.15 K, m1 = 0.0222	997.837 kg/m3	1512.2 m/s
303.15 K, m1 = 0.0266	998.259 kg/m3	1512.6 m/s
303.15 K, m1 = 0.0311	998.698 kg/m3	1513.2 m/s
303.15 K, m1 = 0.0354	999.119 kg/m3	1513.8 m/s
303.15 K, m1 = 0.0423	999.789 kg/m3	1514.6 m/s
303.15 K, m1 = 0.0446	1000.02 kg/m3	1514.9 m/s
303.15 K, m1 = 0.0468	1000.23 kg/m3	1515.1 m/s
303.15 K, m1 = 0.0492	1000.48 kg/m3	1515.4 m/s
303.15 K, m1 = 0.0562	1001.11 kg/m3	1516.2 m/s
303.15 K, m1 = 0.0645	1001.92 kg/m3	1517.2 m/s
303.15 K, m1 = 0.0748	1002.88 kg/m3	1518.4 m/s
303.15 K, m1 = 0.0797	1003.36 kg/m3	1519 m/s
303.15 K, m1 = 0.09	1004.34 kg/m3	1520.2 m/s
303.15 K, m1 = 0.5	1040.04 kg/m3 and 1040.04 kg/m3 and 1040 kg/m3	1565.1 m/s and 1564.9 m/s and 1564.9 m/s
303.15 K, m1 = 0.988	1077.11 kg/m3	1615 m/s
303.15 K, m1 = 0.997	1077.07 kg/m3	1614.9 m/s
303.15 K, m1 = 0.998	1077.11 kg/m3	1615 m/s
308.15 K, m1 = 0.0059	994.605 kg/m3	1520.8 m/s
308.15 K, m1 = 0.0071	994.721 kg/m3	1520.9 m/s
308.15 K, m1 = 0.0087	994.88 kg/m3	1521.1 m/s
308.15 K, m1 = 0.0129	995.288 kg/m3	1521.6 m/s
308.15 K, m1 = 0.0177	995.753 kg/m3	1522.2 m/s
308.15 K, m1 = 0.0222	996.203 kg/m3	1522.8 m/s
308.15 K, m1 = 0.0266	996.623 kg/m3	1523.2 m/s
308.15 K, m1 = 0.0311	997.058 kg/m3	1523.8 m/s
308.15 K, m1 = 0.0354	997.475 kg/m3	1524.3 m/s
308.15 K, m1 = 0.0423	998.143 kg/m3	1525.1 m/s
308.15 K, m1 = 0.0446	998.37 kg/m3	1525.4 m/s
308.15 K, m1 = 0.0468	998.58 kg/m3	1525.6 m/s
308.15 K, m1 = 0.0492	998.825 kg/m3	1525.9 m/s
308.15 K, m1 = 0.0562	999.453 kg/m3	1526.7 m/s
308.15 K, m1 = 0.0645	1000.26 kg/m3	1527.7 m/s
308.15 K, m1 = 0.0748	1001.21 kg/m3	1528.8 m/s
308.15 K, m1 = 0.0797	1001.68 kg/m3	1529.4 m/s
308.15 K, m1 = 0.09	1002.65 kg/m3	1530.5 m/s
308.15 K, m1 = 0.5	1038.13 kg/m3 and 1038.12 kg/m3 and 1038.08 kg/m3	1573.9 m/s and 1573.7 m/s and 1573.7 m/s
308.15 K, m1 = 0.988	1075.01 kg/m3	1622.1 m/s
308.15 K, m1 = 0.997	1074.96 kg/m3	1622 m/s
308.15 K, m1 = 0.998	1075.01 kg/m3	1622.1 m/s
313.15 K, m1 = 0.0059	992.787 kg/m3	1529.8 m/s
313.15 K, m1 = 0.0071	992.9 kg/m3	1530 m/s
313.15 K, m1 = 0.0087	993.06 kg/m3	1530.2 m/s
313.15 K, m1 = 0.0129	993.463 kg/m3	1530.7 m/s
313.15 K, m1 = 0.0177	993.924 kg/m3	1531.3 m/s
313.15 K, m1 = 0.0222	994.373 kg/m3	1531.8 m/s
313.15 K, m1 = 0.0266	994.79 kg/m3	1532.2 m/s
313.15 K, m1 = 0.0311	995.224 kg/m3	1532.8 m/s
313.15 K, m1 = 0.0354	995.638 kg/m3	1533.3 m/s
313.15 K, m1 = 0.0423	996.299 kg/m3	1534.1 m/s
313.15 K, m1 = 0.0446	996.527 kg/m3	1534.3 m/s
313.15 K, m1 = 0.0468	996.735 kg/m3	1534.6 m/s
313.15 K, m1 = 0.0492	996.978 kg/m3	1534.8 m/s
313.15 K, m1 = 0.0562	997.604 kg/m3	1535.6 m/s
313.15 K, m1 = 0.0645	998.406 kg/m3	1536.6 m/s
313.15 K, m1 = 0.0748	999.345 kg/m3	1537.7 m/s
313.15 K, m1 = 0.0797	999.818 kg/m3	1538.2 m/s
313.15 K, m1 = 0.09	1000.78 kg/m3	1539.3 m/s
313.15 K, m1 = 0.5	1036.06 kg/m3 and 1036.02 kg/m3	1581.2 m/s and 1581 m/s and 1581 m/s
313.15 K, m1 = 0.988	1072.78 kg/m3	1628 m/s
313.15 K, m1 = 0.997	1072.73 kg/m3	1627.9 m/s
313.15 K, m1 = 0.998	1072.78 kg/m3	1628 m/s
